Data from US20230140216A1, “COMBINATION THERAPY FOR TREATING MPS1” (GAIN THERAPEUTICS SA, priority 2020, published 2023).

Target: T1, Recombinant human α-L-iduronidase protein (Homo sapiens, UniProt P35475)
T1 construct: purchased R&D
T1 sequence (P35475 28-653): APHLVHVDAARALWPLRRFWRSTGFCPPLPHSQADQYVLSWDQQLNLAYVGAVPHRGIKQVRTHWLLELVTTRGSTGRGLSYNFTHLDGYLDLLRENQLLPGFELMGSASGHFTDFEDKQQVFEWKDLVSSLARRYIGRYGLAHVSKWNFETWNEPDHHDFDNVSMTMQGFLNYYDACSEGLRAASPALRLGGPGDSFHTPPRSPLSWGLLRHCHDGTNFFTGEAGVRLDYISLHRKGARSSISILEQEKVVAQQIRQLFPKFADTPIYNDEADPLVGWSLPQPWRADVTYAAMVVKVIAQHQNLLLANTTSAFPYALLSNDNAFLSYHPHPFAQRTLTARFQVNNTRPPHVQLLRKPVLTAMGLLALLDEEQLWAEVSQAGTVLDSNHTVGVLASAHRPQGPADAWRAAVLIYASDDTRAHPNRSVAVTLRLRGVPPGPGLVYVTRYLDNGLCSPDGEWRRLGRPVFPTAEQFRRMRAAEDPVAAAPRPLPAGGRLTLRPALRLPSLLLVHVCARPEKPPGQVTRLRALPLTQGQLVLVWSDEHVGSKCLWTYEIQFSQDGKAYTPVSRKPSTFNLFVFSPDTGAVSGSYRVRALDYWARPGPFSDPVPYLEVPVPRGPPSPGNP
Assay: Differential scanning fluorimetry (DSF) thermal stabilization;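 note: Classes count stabilization of α-L-iduronidase despite the GALC label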
Type: binding
Details: ΔTm class
Description: The capacity of Compounds of the Disclosure to stabilize α-L-iduronidase was assessed by differential scanning fluorimetry technique. The thermal denaturation of purified human native enzyme was monitored in the presence of the extrinsic fluorescent probe SYPRO Orange (Sigma-Aldrich, St. Louis, MO). The tested compounds were dissolved in 100% DMSO and diluted into the protein buffer to achieve final concentrations of 1% DMSO.
Recombinant human α-L-iduronidase protein (purchased from R&D) 12.5 µL of 1.5 µM in 100 mM Hepes 20 mM MgCl2 pH 7 (protein final concentration 0.75 µM) with Sypro Orange 10X and 12.5 µl of the different compound solutions were dispensed into 96-well PCR-plates. The intensity of SYPRO Orange fluorescence after a systematic increase of temperature was monitored in the Roche LightCycler® 480 II device (Roche Diagnostics).
The capacity to stabilize α-L-iduronidase is denoted as follows: • ΔTm GALC > 1 is shown as A; • ΔTm GALC between 0.5 and 1 is shown as B; • ΔTm GALC between 0.1 and 0.5 is shown as C; and • ΔTm GALC less than 0.1 is shown as D.

[1] = commercially available Examples 8-37

SMILES	DSF Activity range [1]	DSF Activity range (synthetized Examples 38-94)	other results
CN(CC(=O)Nc1cccc(F)c1)Cc1nc2c(cnn2C)c(=O)[nH]1 [Example 32, N-(3-fluorophenyl)-2-(methyl((1-methyl-4-oxo-4,5-dihydro-1H-pyrazolo[3,4-d]pyrimidin-6-yl)methyl)amino)acetamide]	D (ΔTm GALC less than 0.1 is shown as D)		
CN(C(=O)CN(Cc1nc2ccc(F)cc2c(=O)[nH]1)C1CC1)c1ccccc1Cl [Example 61]		D (ΔTm GALC less than 0.1 is shown as D)	
CN(CC(=O)N(C)c1ccc(Cl)c(Cl)c1)Cc1nc2ccc(F)cc2c(=O)[nH]1 [Example 58, N-(3,4-dichlorophenyl)-2-(((6-fluoro-4-oxo-3,4-dihydroquinazolin-2-yl)methyl)(methyl)amino)-N-methylacetamide]		B (ΔTm GALC between 0.5 and 1 is shown as B)	
Cc1cc2nc(CN(C)CC(=O)N3CCc4ccccc43)[nH]c(=O)c2s1 [Example 52]		B (ΔTm GALC between 0.5 and 1 is shown as B)	
CN(CC(=O)N1Cc2ccccc2C1)Cc1nc2ccc(F)cc2c(=O)[nH]1 [Example 56, 6-fluoro-2-(((2-(isoindolin-2-yl)-2-oxoethyl)(methyl)amino)methyl)quinazolin-4(3H)-one]		A (ΔTm GALC > 1 is shown as A)	
COCCNC(=O)CN(C)Cc1nc2c(cnn2C)c(=O)[nH]1 [Example 34, N-(2-methoxyethyl)-2-(methyl((1-methyl-4-oxo-4,5-dihydro-1H-pyrazolo[3,4-d]pyrimidin-6-yl)methyl)amino)acetamide]	D (ΔTm GALC less than 0.1 is shown as D)		
COc1ccc(-n2ncc3c(O)nc(CN(C)CC(=O)N(C)c4ccccc4Cl)nc32)cc1 [Example 7, N-(2-chlorophenyl)-2-(((4-hydroxy-1-(4-methoxyphenyl)-1H-pyrazolo[3,4-d]pyrimidin-6-yl)methyl)(methyl)amino)-N-methylacetamide]			DSF Activity range (synthetized Examples 1-7): C (ΔTm GALC between 0.1 and 0.5 is shown as C)
Cc1cc2nc(CN(C)CC(=O)N(C)c3ccc(Cl)c(Cl)c3)[nH]c(=O)c2s1 [Example 55, N-(3,4-dichlorophenyl)-N-methyl-2-(methyl((6-methyl-4-oxo-3,4-dihydrothieno[3,2-d]pyrimidin-2-yl)methyl)amino)acetamide]		C (ΔTm GALC between 0.1 and 0.5 is shown as C)	
Cc1csc2c(=O)[nH]c(CN(C)CC(=O)N(C)c3cccc(F)c3)nc12 [Example 50]		B (ΔTm GALC between 0.5 and 1 is shown as B)	
CN(C(=O)CN(Cc1nc2cc(F)ccc2c(=O)[nH]1)C1CC1)c1ccccc1Cl [Example 65]		D (ΔTm GALC less than 0.1 is shown as D)	
Cc1csc2c(=O)[nH]c(CN(CC(=O)N(C)c3ccccc3Cl)C3CC3)nc12 [Example 43]		D (ΔTm GALC less than 0.1 is shown as D)	
CN(CC(=O)N(C)c1ccccc1Cl)Cc1nc2c(cnn2C)c(=O)[nH]1 [Example 92]		B (ΔTm GALC between 0.5 and 1 is shown as B)	
Cc1ccc2c(=O)[nH]c(CN(C)CC(=O)N3CCc4ccccc43)nc2c1 [Example 86]		D (ΔTm GALC less than 0.1 is shown as D)	
CCCN(CC(=O)N(C)c1ccccc1Cl)Cc1nc2cc(F)ccc2c(=O)[nH]1 [Example 76]		D (ΔTm GALC less than 0.1 is shown as D)	
CN(CC(=O)N1CCc2ccccc21)Cc1nc2c(cnn2C)c(=O)[nH]1 [Example 91]		B (ΔTm GALC between 0.5 and 1 is shown as B)	
CCCN(CC(=O)N(C)c1ccccc1Cl)Cc1nc2cc(C)ccc2c(=O)[nH]1 [Example 85]		B (ΔTm GALC between 0.5 and 1 is shown as B)	
CCN(CC(=O)N(C)c1c(Cl)cccc1Cl)Cc1nc2ccc(F)cc2c(=O)[nH]1 [Example 69, 2-(N-ethyl-N-((6-fluoro-3,4-dihydro-4-oxoquinazolin-2-yl)methyl)amino)-N-(2,6-dichlorophenyl)-N-methylacetamide]		C (ΔTm GALC between 0.1 and 0.5 is shown as C)	
CN(CC(=O)N(C)c1cccc(F)c1)Cc1nc2c(cnn2C)c(=O)[nH]1 [Example 94]		B (ΔTm GALC between 0.5 and 1 is shown as B)	

SMILES	DSF Activity range [1]	DSF Activity range (synthetized Examples 38-94)	other results
CCN(CC(=O)N(C)c1ccccc1Cl)Cc1nc2cc(F)ccc2c(=O)[nH]1.Cl [Example 64]		B (ΔTm GALC between 0.5 and 1 is shown as B)	
COc1cccc(-n2ncc3c(O)nc(CN(C)CC(=O)N(C)c4ccccc4Cl)nc32)c1 [Example 6, N-(2-chlorophenyl)-2-(((4-hydroxy-1-(3-methoxyphenyl)-1H-pyrazolo[3,4-d]pyrimidin-6-yl)methyl)(methyl)amino)-N-methylacetamide]			DSF Activity range (synthetized Examples 1-7): B (ΔTm GALC between 0.5 and 1 is shown as B)
CCCN(CC(=O)Nc1ccc(F)cc1F)Cc1nc2ccsc2c(=O)[nH]1 [Example 11, N-(2,4-difluorophenyl)-2-(((4-oxo-3,4-dihydrothieno[3,2-d]pyrimidin-2-yl)methyl)(propyl)amino)acetamide]	B (ΔTm GALC between 0.5 and 1 is shown as B)		
CCN(CC(=O)Nc1c(Cl)cccc1Cl)Cc1nc2ccccc2c(=O)[nH]1 [Example 16, N-(2,6-dichlorophenyl)-2-(ethyl((4-oxo-3,4-dihydroquinazolin-2-yl)methyl)amino)acetamide]	B (ΔTm GALC between 0.5 and 1 is shown as B)		
CCN(C(=O)CN(C)Cc1nc2ccccc2c(=O)[nH]1)c1cccc2ccccc12 [Example 28, N-ethyl-2-(methyl((4-oxo-3,4-dihydroquinazolin-2-yl)methyl)amino)-N-(naphthalen-1-yl)acetamide]	B (ΔTm GALC between 0.5 and 1 is shown as B)		
CCN(CC(=O)Nc1cccc2c1N=S=N2)Cc1nc2ccccc2c(=O)[nH]1 [Example 25, N-(benzo[c][1,2,5]thiadiazol-4-yl)-2-(ethyl((4-oxo-3,4-dihydroquinazolin-2-yl)methyl)amino)acetamide]	B (ΔTm GALC between 0.5 and 1 is shown as B)		
CN(CC(=O)N(C)c1cccc(F)c1)Cc1nc2cc(F)ccc2c(=O)[nH]1 [Example 77]		C (ΔTm GALC between 0.1 and 0.5 is shown as C)	
Cc1csc(NC(=O)CN(C)Cc2nc3ccsc3c(=O)[nH]2)n1 [Example 14, 2-(methyl((4-oxo-3,4-dihydrothieno[3,2-d]pyrimidin-2-yl)methyl)amino)-N-(4-methylthiazol-2-yl)acetamide]	A (ΔTm GALC > 1 is shown as A)		
CCN(CC(=O)N(C)c1c(Cl)cccc1Cl)Cc1nc2c(cnn2C)c(=O)[nH]1 [Example 93, 2-(N-ethyl-N-((4,5-dihydro-l-methyl-4-oxo-1H-pyrazolo[3,4-d]pylimidin-6-yl)methyl)amino)-N-(2,6-dichlorophenyl)-N-methylacetamide]		C (ΔTm GALC between 0.1 and 0.5 is shown as C)	
CCN(CC(=O)NCC(C)C)Cc1nc2ccccc2c(=O)[nH]1 [Example 26, 2-(ethyl((4-oxo-3,4-dihydroquinazolin-2-yl)methyl)amino)-N-isobutylacetamide]	B (ΔTm GALC between 0.5 and 1 is shown as B)		
CN(CC(=O)N(C)c1ccc(Cl)c(Cl)c1)Cc1nc2cc(F)ccc2c(=O)[nH]1 [Example 75]		B (ΔTm GALC between 0.5 and 1 is shown as B)	
CCCN(CC(=O)N(C)c1ccccc1Cl)Cc1nc2ccc(F)cc2c(=O)[nH]1 [Example 62]		B (ΔTm GALC between 0.5 and 1 is shown as B)	
CCCN(CC(=O)N(C)c1ccccc1Cl)Cc1nc2ccc(C)cc2c(=O)[nH]1 [Example 80]		B (ΔTm GALC between 0.5 and 1 is shown as B)	
CN(CC(=O)N(C)C1CCCCC1)Cc1nc2c(cnn2C)c(=O)[nH]1 [Example 37, N-cyclohexyl-N-methyl-2-(methyl((1-methyl-4-oxo-4,5-dihydro-1H-pyrazolo[3,4-d]pyrimidin-6-yl)methyl)amino)acetamide]	B (ΔTm GALC between 0.5 and 1 is shown as B)		
CCN(CC(=O)N(C)c1ccccc1Cl)Cc1nc2cc(C)ccc2c(=O)[nH]1 [Example 84]		C (ΔTm GALC between 0.1 and 0.5 is shown as C)	
CN(CC(=O)Nc1ccccc1)Cc1nc2c(cnn2C)c(=O)[nH]1 [Example 33, 2-(methyl((1-methyl-4-oxo-4,5-dihydro-1H-pyrazolo[3,4-d]pyrimidin-6-yl)methyl)amino)-N-phenylacetamide]	C (ΔTm GALC between 0.1 and 0.5 is shown as C)		
COCCN(CC(=O)Nc1ccc(C)cc1)Cc1nc2ccccc2c(=O)[nH]1 [Example 17, 2-((2-methoxyethyl)((4-oxo-3,4-dihydroquinazolin-2-yl)methyl)amino)-N-(p-tolyl)acetamide]	B (ΔTm GALC between 0.5 and 1 is shown as B)		
